Patent publication US20220323406A1, “METHODS AND COMPOSITIONS FOR DIFFERENTIATING STEM CELLS” (Massachusetts Institute of Technology, priority 2019, published 2022)

Tests used:
[1] = system: ENR+CD organoids (ISC to Paneth cell differentiation); experiment: Primary screen: CCh-stimulated lysozyme secretion LYZ.S, 2.5-D 384-well ENR+CD organoid differentiation; format: cell-based, mouse; conditions: primary screen
From the text: (§1) High-throughput screening.

[2] = system: ENR+CD organoids (ISC to Paneth cell differentiation); experiment: Primary screen: basal (non-stimulated) lysozyme secretion LYZ.NS, 2.5-D 384-well ENR+CD organoid differentiation; format: cell-based, mouse; conditions: primary screen; for Z.LYZ.NS: standard z score
From the text: as §1

ENR+CD organoids = experiment: Primary screen: ATP (CellTiter-Glo 3D, CTG) cell number/viability, 2.5-D 384-well ENR+CD organoids; conditions: primary screen; for Z.CTG: standard z score;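 for all read-outs here: compounds given at plating and again on day 3 over a 6-day differentiation from ENR+CV stem-cell-enriched precursors, ATP measured on day 6, plate median as control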
[3] = dose 0.08 uM, FC vs plate median
[4] = dose 0.40 uM, FC vs plate median
[5] = dose 2.00 uM, FC vs plate median
[6] = dose 10.00 uM, FC vs plate median
[7] = dose 0.08 uM, FC relative to plate median
[8] = dose 0.40 uM, FC relative to plate median
[9] = dose 2.00 uM, FC relative to plate median
[10] = dose 10.00 uM, FC relative to plate median

SMILES | Z.LYZ.NS ([2]; dose 0.08 uM) | Z.LYZ.NS ([2]; dose 0.40 uM) | Z.LYZ.NS ([2]; dose 2.00 uM) | Z.LYZ.NS ([2]; dose 10.00 uM) | Dose.FC.LYZ.S ([1]; dose 0.08 uM) [log2 fold change] | Dose.FC.LYZ.S ([1]; dose 0.40 uM) [log2 fold change] | Dose.FC.LYZ.S ([1]; dose 2.00 uM) [log2 fold change] | Dose.FC.LYZ.S ([1]; dose 10.00 uM) [log2 fold change] | Dose.FC.LYZ.NS ([2]; dose 0.08 uM) [log2 fold change] | Z.LYZ.NS (standard z score) ([2]; dose 0.08 uM) | Dose.FC.LYZ.NS ([2]; dose 0.40 uM) [log2 fold change] | Z.LYZ.NS (standard z score) ([2]; dose 0.40 uM) | Dose.FC.LYZ.NS ([2]; dose 2.00 uM) [log2 fold change] | Z.LYZ.NS (standard z score) ([2]; dose 2.00 uM) | Dose.FC.LYZ.NS ([2]; dose 10.00 uM) [log2 fold change] | Z.LYZ.NS (standard z score) ([2]; dose 10.00 uM) | Z.CTG (standard z score) (ENR+CD organoids; dose 0.08 uM) | Z.CTG (standard z score) (ENR+CD organoids; dose 0.40 uM) | Z.CTG (standard z score) (ENR+CD organoids; dose 2.00 uM) | Z.CTG (standard z score) (ENR+CD organoids; dose 10.00 uM) | also measured
O=C(NOC[C@H](O)CO)c1ccc(F)c(F)c1Nc1ccc(I)cc1F [PD0325901] | −1.046 | −1.064 | −1.215 | −1.625 |  |  |  |  |  |  |  |  |  |  |  |  |  |  |  |  | Dose.FC.LYZ.S [1, 3]: −0.212 log2 fold change; Dose.FC.LYZ.S [1, 4]: −0.219 log2 fold change; Dose.FC.LYZ.S [1, 5]: −0.227 log2 fold change; Dose.FC.LYZ.S [1, 6]: −0.269 log2 fold change; Dose.FC.LYZ.NS [2, 3]: −0.120 log2 fold change; Dose.FC.LYZ.NS [2, 4]: −0.122 log2 fold change; Dose.FC.LYZ.NS [2, 5]: −0.139 log2 fold change; Dose.FC.LYZ.NS [2, 6]: −0.187 log2 fold change; Dose.FC.CTG (ENR+CD organoids; [3]): −0.502 log2 fold change; Dose.FC.CTG (ENR+CD organoids; [4]): −1.155 log2 fold change; Dose.FC.CTG (ENR+CD organoids; [5]): −0.867 log2 fold change; Dose.FC.CTG (ENR+CD organoids; [6]): −0.963 log2 fold change
COc1cc(OC2CCN(C)CC2)ccc1Nc1ncc2c(n1)n(C1CCCC1)c(=O)n2C [AZ 3146] |  |  |  |  | 0.049 | −0.067 | −0.130 | −0.422 | 0.073 | 0.639 | −0.038 | −0.327 | −0.079 | −0.687 | −0.281 | −2.447 | −0.310 | −0.626 | −0.881 | −2.789 | Dose.FC.CTG (ENR+CD organoids; dose 0.08 uM): −0.130 log2 fold change; Dose.FC.CTG (ENR+CD organoids; dose 0.40 uM): −0.262 log2 fold change; Dose.FC.CTG (ENR+CD organoids; dose 2.00 uM): −0.369 log2 fold change; Dose.FC.CTG (ENR+CD organoids; dose 10.00 uM): −1.168 log2 fold change
O=C(Nc1ccccc1)c1cc([N+](=O)[O-])ccc1Cl [GW9662] |  |  |  |  |  |  |  |  |  | 0.305 |  | 0.852 |  | 0.400 |  | 0.264 | 0.274 | 0.098 | 0.508 | 0.318 | Dose.FC.LYZ.S (log2 fold change) ([1]; dose 0.08 uM): 0.036; Dose.FC.LYZ.S (log2 fold change) ([1]; dose 0.40 uM): 0.080; Dose.FC.LYZ.S (log2 fold change) ([1]; dose 2.00 uM): 0.093; Dose.FC.LYZ.S (log2 fold change) ([1]; dose 10.00 uM): 0.020; Dose.FC.LYZ.NS (log2 fold change) ([2]; dose 0.08 uM): 0.035; Dose.FC.LYZ.NS (log2 fold change) ([2]; dose 0.40 uM): 0.098; Dose.FC.LYZ.NS (log2 fold change) ([2]; dose 2.00 uM): 0.046; Dose.FC.LYZ.NS (log2 fold change) ([2]; dose 10.00 uM): 0.030; Dose.FC.CTG (log2 fold change) (ENR+CD organoids; dose 0.08 uM): 0.115; Dose.FC.CTG (log2 fold change) (ENR+CD organoids; dose 0.40 uM): 0.041; Dose.FC.CTG (log2 fold change) (ENR+CD organoids; dose 2.00 uM): 0.212; Dose.FC.CTG (log2 fold change) (ENR+CD organoids; dose 10.00 uM): 0.133
CCNC(=O)c1noc(-c2cc(C(C)C)c(O)cc2O)c1-c1ccc(CN2CCOCC2)cc1 [AUY922 (NVP-AUY922)] |  |  |  |  | −0.209 | −0.184 | −0.216 | −0.214 | −0.144 | −1.251 | −0.154 | −1.343 | −0.138 | −1.200 | −0.153 | −1.330 | −2.830 | −3.208 | −2.715 | −3.032 | Dose.FC.CTG (ENR+CD organoids; dose 0.08 uM): −1.185 log2 fold change; Dose.FC.CTG (ENR+CD organoids; dose 0.40 uM): −1.343 log2 fold change; Dose.FC.CTG (ENR+CD organoids; dose 2.00 uM): −1.137 log2 fold change; Dose.FC.CTG (ENR+CD organoids; dose 10.00 uM): −1.270 log2 fold change
Cc1ccc(S(=O)(=O)Cc2nc(-c3ccc(C(=O)NCc4cccnc4)cc3)oc2C)cc1 [STF-118804] | −1.349 | −1.824 | −1.502 | −1.541 |  |  |  |  |  |  |  |  |  |  |  |  |  |  |  |  | Dose.FC.LYZ.S [1, 7]: −0.257 log2 fold change; Dose.FC.LYZ.S [1, 8]: −0.212 log2 fold change; Dose.FC.LYZ.S [1, 9]: −0.271 log2 fold change; Dose.FC.LYZ.S [1, 10]: −0.300 log2 fold change; Dose.FC.LYZ.NS [2, 7]: −0.155 log2 fold change; Dose.FC.LYZ.NS [2, 8]: −0.210 log2 fold change; Dose.FC.LYZ.NS [2, 9]: −0.172 log2 fold change; Dose.FC.LYZ.NS [2, 10]: −0.177 log2 fold change; Dose.FC.CTG (ENR+CD organoids; [7]): −0.151 log2 fold change; Z.CTG (ENR+CD organoids; dose 0.08 uM): −0.360; Dose.FC.CTG (ENR+CD organoids; [8]): −1.401 log2 fold change; Z.CTG (ENR+CD organoids; dose 0.40 uM): −3.346; Dose.FC.CTG (ENR+CD organoids; [9]): −0.916 log2 fold change; Z.CTG (ENR+CD organoids; dose 2.00 uM): −2.189; Dose.FC.CTG (ENR+CD organoids; [10]): −1.338 log2 fold change; Z.CTG (ENR+CD organoids; dose 10.00 uM): −3.195
